Literature values in patent publication US20050186280A1, “Method for stabilizing a composition having a biologically active epidermal growth factor as an active ingredient” (Daewoong Pharm. Co., Ltd., priority 2000, published 2005).

Settings: background statement; applied to wounds

**Q.** Which “half-life of EGF” value does the source give for epidermal growth factor [EGF] here?
**A.** about 1 hour
